The target in the test is T1, full length human recombinant glucocorticoid receptor (Homo sapiens, UniProt P04150).
T1 construct: partially purified full length human recombinant glucocorticoid receptor; purchased Panvera/Invitrogen PV4302
T1 sequence (P04150 1-777): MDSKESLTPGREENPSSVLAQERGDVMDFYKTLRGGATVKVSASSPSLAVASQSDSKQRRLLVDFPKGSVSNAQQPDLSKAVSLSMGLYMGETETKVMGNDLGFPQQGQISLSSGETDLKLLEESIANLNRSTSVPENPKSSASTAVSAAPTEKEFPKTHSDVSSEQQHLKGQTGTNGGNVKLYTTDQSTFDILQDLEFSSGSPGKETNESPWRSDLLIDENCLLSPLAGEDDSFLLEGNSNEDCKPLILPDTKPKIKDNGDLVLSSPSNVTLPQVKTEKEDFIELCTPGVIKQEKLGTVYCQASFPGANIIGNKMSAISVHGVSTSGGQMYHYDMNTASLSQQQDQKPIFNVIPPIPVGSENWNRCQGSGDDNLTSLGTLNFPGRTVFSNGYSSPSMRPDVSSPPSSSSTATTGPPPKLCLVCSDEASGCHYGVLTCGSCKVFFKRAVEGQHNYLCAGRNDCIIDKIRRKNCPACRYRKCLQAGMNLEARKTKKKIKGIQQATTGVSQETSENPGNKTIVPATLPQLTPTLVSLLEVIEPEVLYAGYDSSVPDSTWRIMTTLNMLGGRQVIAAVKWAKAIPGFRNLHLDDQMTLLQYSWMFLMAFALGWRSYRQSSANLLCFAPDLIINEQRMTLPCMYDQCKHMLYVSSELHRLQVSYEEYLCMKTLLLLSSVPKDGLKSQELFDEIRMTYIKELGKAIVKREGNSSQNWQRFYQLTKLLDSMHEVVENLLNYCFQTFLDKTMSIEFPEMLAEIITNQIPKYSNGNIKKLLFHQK
The test can be described thus: Glucocorticoid Receptor Binding Assay (fluorescence polarization competitor assay, Fluormone GS Far Red tracer). A digest of the protocol:
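Partially purified full-length recombinant human GR with a stabilizing coactivator peptide was incubated with Fluormone GS Far Red tracer and serially diluted compound for 3 h at 22 °C in the dark, pH 7.4. Fluorescence polarization was read at 610-660 nm. IC50 came from sigmoidal fitting, and Ki from Cheng-Prusoff.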
For orientation: Ki means the equilibrium dissociation constant of an inhibitor or competing ligand from its target. In the case of `Cc1cc(C(O)(C(C)c2ccc(OCc3cc(C(=O)O)ccn3)cc2Cl)C(F)(F)F)ccn1` (centres unmarked) [Example 100, 2-{3-Chloro-4-[3,3,3-trifluoro-2-hydroxy-1-methyl-2-(2-methyl-pyridin-4-yl)-propyl]-phenoxymethyl}-isonicotinic acid], the inhibition constant (Ki) came out at 34.9 nM.
As to `CCOC(=O)c1cc(COc2ccc(C(C)C(O)(c3ccnc(C)c3)C(F)(F)F)c(Cl)c2)ccn1` (centres unmarked) [Example 101, 4-{3-Chloro-4-[3,3,3-trifluoro-2-hydroxy-1-methyl-2-(2-methyl-pyridin-4-yl)-propyl]-phenoxymethyl}-pyridine-2-carboxylic acid ethyl ester], the Ki was found to be 9.4 nM.
With `Cc1cc(C(O)(C(C)c2ccc(OCc3ccnc(C(=O)O)c3)cc2Cl)C(F)(F)F)ccn1` (centres unmarked) [Example 102, 4-{3-Chloro-4-[3,3,3-trifluoro-2-hydroxy-1-methyl-2-(2-methyl-pyridin-4-yl)-propyl]-phenoxymethyl}-pyridine-2-carboxylic acid] the figure was 20.2 nM; with `COC(=O)c1ccc(Oc2ccc(C(C)C(O)(c3ccnc(C)c3)C(F)(F)F)c(Cl)c2)nn1` (centres unmarked) [Example 104, 6-{3-Chloro-4-[3,3,3-trifluoro-2-hydroxy-1-methyl-2-(2-methyl-pyridin-4-yl)-propyl]-phenoxy}-pyridazine-3-carboxylic acid methyl ester], 87.4 nM.
On to `Cc1cc(C(O)(C(C)c2ccc(Oc3ccc(C(=O)O)nn3)cc2Cl)C(F)(F)F)ccn1` (centres unmarked) [Example 105, 6-{3-Chloro-4-[3,3,3-trifluoro-2-hydroxy-1-methyl-2-(2-methyl-pyridin-4-yl)-propyl]-phenoxy}-pyridazine-3-carboxylic acid], for which the Ki came to 361 nM.
On to `CCOC(=O)c1ccc(COc2ccc(C(C)C(O)(c3ccncc3)C(F)(F)F)c(Cl)c2)cc1` (centres unmarked) [Example 106, 4-[3-Chloro-4-(3,3,3-trifluoro-2-hydroxy-1-methyl-2-pyridin-4-yl-propyl)-phenoxymethyl]-benzoic acid ethyl ester], for which the Ki worked out at 47.1 nM.
The figure for `CC(c1ccc(OCc2ccc(C(=O)O)cc2)cc1Cl)C(O)(c1ccncc1)C(F)(F)F` (centres unmarked) [Example 107, 4-[3-Chloro-4-(3,3,3-trifluoro-2-hydroxy-1-methyl-2-pyridin-4-yl-propyl)-phenoxymethyl]-benzoic acid] is 30.8 nM; for `COc1cc(C(=O)O)ccc1COc1ccc(C(C)C(O)(c2ccncc2)C(F)(F)F)c(Cl)c1` (centres unmarked) [Example 109, 4-[3-Chloro-4-(3,3,3-trifluoro-2-hydroxy-1-methyl-2-pyridin-4-yl-propyl)-phenoxymethyl]-3-methoxy-benzoic acid] it is 79.2 nM.
As for `COC(=O)c1ccc(COc2ccc(C(C)C(O)(c3ccnc(Cl)c3)C(F)(F)F)c(Cl)c2)nc1` (centres unmarked) [Example 110, 6-{3-Chloro-4-[2-(2-chloro-pyridin-4-yl)-3,3,3-trifluoro-2-hydroxy-1-methyl-propyl]-phenoxymethyl}-nicotinic acid methyl ester], the Ki was 6.4 nM.
Turning to `CC(c1ccc(OCc2ccc(C(=O)O)cn2)cc1Cl)C(O)(c1ccnc(Cl)c1)C(F)(F)F` (centres unmarked) [Example 111, 6-{3-Chloro-4-[2-(2-chloro-pyridin-4-yl)-3,3,3-trifluoro-2-hydroxy-1-methyl-propyl]-phenoxymethyl}-nicotinic acid], the Ki was 13 nM.
The figure for `COC(=O)c1cnc(COc2ccc(C(C)C(O)(c3ccnc(Cl)c3)C(F)(F)F)c(Cl)c2)cn1` (centres unmarked) [Example 112, 5-{3-Chloro-4-[2-(2-chloro-pyridin-4-yl)-3,3,3-trifluoro-2-hydroxy-1-methyl-propyl]-phenoxymethyl}-pyrazine-2-carboxylic acid methyl ester] is 9.2 nM; for `CC(c1ccc(OCc2cnc(C(=O)O)cn2)cc1Cl)C(O)(c1ccnc(Cl)c1)C(F)(F)F` (centres unmarked) [Example 113, 5-{3-Chloro-4-[2-(2-chloro-pyridin-4-yl)-3,3,3-trifluoro-2-hydroxy-1-methyl-propyl]-phenoxymethyl}-pyrazine-2-carboxylic acid] it is 13.6 nM.
For `COC(=O)c1cnc(Oc2ccc(C(C)C(O)(c3ccnc(Cl)c3)C(F)(F)F)c(Cl)c2)cn1` (centres unmarked) [Example 114, 5-{3-Chloro-4-[2-(2-chloro-pyridin-4-yl)-3,3,3-trifluoro-2-hydroxy-1-methyl-propyl]-phenoxy}-pyrazine-2-carboxylic acid methyl ester], the Ki turned out to be 24.2 nM.
With `CC(c1ccc(Oc2cnc(C(=O)O)cn2)cc1Cl)C(O)(c1ccnc(Cl)c1)C(F)(F)F` (centres unmarked) [Example 115, 5-{3-Chloro-4-[2-(2-chloro-pyridin-4-yl)-3,3,3-trifluoro-2-hydroxy-1-methyl-propyl]-phenoxy}-pyrazine-2-carboxylic acid] the figure was 96.8 nM; with `COC(=O)c1cnc(Oc2ccc(C(C)C(O)(c3ccnc(Cl)c3)C(F)(F)F)c(Cl)c2)nc1` (centres unmarked) [Example 116, 2-{3-Chloro-4-[2-(2-chloro-pyridin-4-yl)-3,3,3-trifluoro-2-hydroxy-1-methyl-propyl]-phenoxy}-pyrimidine-5-carboxylic acid methyl ester], 40.6 nM.
On to `CC(c1ccc(Oc2ncc(C(=O)O)cn2)cc1Cl)C(O)(c1ccnc(Cl)c1)C(F)(F)F` (centres unmarked) [Example 117, 2-{3-Chloro-4-[2-(2-chloro-pyridin-4-yl)-3,3,3-trifluoro-2-hydroxy-1-methyl-propyl]-phenoxy}-pyrimidine-5-carboxylic acid], for which the Ki worked out at 111 nM.
Turning to `COC(=O)c1ccc(Oc2ccc(C(C)C(O)(c3ccnc(Cl)c3)C(F)(F)F)c(Cl)c2)nc1` (centres unmarked) [Example 118, 6-{3-Chloro-4-[2-(2-chloro-pyridin-4-yl)-3,3,3-trifluoro-2-hydroxy-1-methyl-propyl]-phenoxy}-nicotinic acid methyl ester], the Ki turned out to be 10.8 nM.
Regarding `CC(c1ccc(Oc2ccc(C(=O)O)cn2)cc1Cl)C(O)(c1ccnc(Cl)c1)C(F)(F)F` (centres unmarked) [Example 119, 6-{3-Chloro-4-[2-(2-chloro-pyridin-4-yl)-3,3,3-trifluoro-2-hydroxy-1-methyl-propyl]-phenoxy}-nicotinic acid], the Ki amounted to 20.4 nM.
Take `COc1cc(C(=O)O)ccc1COc1ccc(C(C)C(O)(c2cnn3ccccc23)C(F)(F)F)c(Cl)c1` (centres unmarked) [Example 129, 4-[3-Chloro-4-(3,3,3-trifluoro-2-hydroxy-1-methyl-2-pyrazolo[1,5-a]pyridin-3-yl-propyl)-phenoxymethyl]-3-methoxy-benzoic acid]: the Ki was determined as 267 nM.
With `COc1cc(Oc2ccc(Cl)c(C(C)C(O)(c3ccnc(Cl)c3)C(F)(F)F)c2)ccc1C(=O)O` (centres unmarked) [Example 131, 4-{4-Chloro-3-[2-(2-chloro-pyridin-4-yl)-3,3,3-trifluoro-2-hydroxy-1-methyl-propyl]-phenoxy}-2-methoxy-benzoic acid] the figure was 437 nM.
Regarding `C[C@H](c1ccc(Oc2ccc(OCC(=O)O)cc2)cc1Cl)[C@@](O)(c1ccc(=O)n(C)c1)C(F)(F)F` [Example 160], the Ki was 1.6 nM.
Consider `COC(=O)c1ccc(-c2ccc([C@H](C)[C@](O)(c3ccc(=O)n(C)c3)C(F)(F)F)c(Cl)c2)cc1F` [Example 166, 3′-Chloro-3-fluoro-4′-[3,3,3-trifluoro-2-hydroxy-1-methyl-2-(1-methyl-6-oxo-1,6-didydro-pyridin-3-yl)-propyl]-biphenyl-4-carboxylic acid methyl ester], for which the Ki was 6.2 nM.
With `C[C@@H](c1ccc(-c2ccc(C(=O)O)c(F)c2)cc1Cl)[C@](O)(c1ccc(=O)n(C)c1)C(F)(F)F` [Example 167, 3′-Chloro-3-fluoro-4′-[3,3,3-trifluoro-2-hydroxy-1-methyl-2-(1-methyl-6-oxo-1,6-dihydro-pyridin-3-yl)-propyl]-propylphiphenyl-4-carboxylic acid] the figure was 45.9 nM.
The figure for `COC(=O)c1ccc(-c2ccc([C@H](C)[C@](O)(c3ccc(=O)n(C)c3)C(F)(F)F)c(Cl)c2)cc1Cl` [Example 168, 3,3′-Dichloro-4′-[3,3,3-trifluoro-2-hydroxy-1-methyl-2-(1-methyl-6-oxo-1,6-dihydro-pyridin-3-yl)-propyl]-propylphiphenyl-4-carboxylic acid methyl ester] is 2.6 nM; for `Cc1cc([C@](O)([C@H](C)c2ccc(Oc3ccc(C(=O)O)c(Cl)c3)cc2Cl)C(F)(F)F)sc1C#N` [Example 235, 2-Chloro-4-{3-chloro-4-[2-(5-cyano-4-methyl-thiophen-2-yl)-3,3,3-trifluoro-2-hydroxy-1-methyl-propyl]-phenoxy}-benzoic acid] it is 1.8 nM; for `Cc1cc([C@@](O)([C@@H](C)c2ccc(Oc3ccc(C(=O)O)cc3Cl)cc2Cl)C(F)(F)F)cn(C)c1=O` [Example 244, 3-Chloro-4-{3-chloro-4-[(1S,2S)-2-(1,5-dimethyl-6-oxo-1,6-dihydro-pyridin-3-yl)-3,3,3-trifluoro-2-hydroxy-1-methyl-propyl]-phenoxy}-benzoic acid] it is 601 nM.

The record behind these values is patent US8138189B2, “Substituted benzene compounds as modulators of the glucocorticoid receptor” (Hoffman-La Roche Inc., priority 2009, dated 2012).
